# Data from patent publication US11618747B2, “LXR modulators with bicyclic core moiety” (OrsoBio, Inc., priority 2018, dated 2023).
# How the values were obtained:
# [1] = biological target: T1, LXRβ ligand-binding domain (Homo sapiens, UniProt P55055, DUP175-175); assay: TR-FRETβ activity assay (NCoA3 coactivator peptide recruitment); assay type: biochemical; details: TR-FRET, 1 μM 24(S)-25-epoxycholesterol prestimulation; read-out: FRETβ (EC50 range)
# T1 construct: amino acids 156-461; NP009052; made in house; host or cells: E. coli
# T1 sequence (P55055 with tags, fused parts or gaps DUP175-175 limits assumed): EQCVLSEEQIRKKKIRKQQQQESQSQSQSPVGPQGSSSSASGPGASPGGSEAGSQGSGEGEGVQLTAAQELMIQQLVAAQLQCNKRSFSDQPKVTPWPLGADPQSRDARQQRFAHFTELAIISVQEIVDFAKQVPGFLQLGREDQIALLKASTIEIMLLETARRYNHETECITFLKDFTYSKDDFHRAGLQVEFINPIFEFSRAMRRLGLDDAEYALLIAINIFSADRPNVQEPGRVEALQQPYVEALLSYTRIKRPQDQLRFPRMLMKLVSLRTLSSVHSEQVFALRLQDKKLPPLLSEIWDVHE
# Procedure, shortened: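 Inverse agonism assessed by loss of coactivator recruitment, read as TR-FRET 665/615 nm after 1 h equilibration at 4 °C, in triplicate. Ten-point titration from 50 μM to 0.002 μM against LXRβ LBD (76 nM, GST fusion) prestimulated with 1 μM 24(S)-25-epoxycholesterol, with 400 nM NCoA3 peptide, pH 6.8. Sulfonyl acetic acids kept as 20 mM DMSO stocks with 100 mM TFA.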
# [2] = biological target: T2, full length (FL) LXRα (Homo sapiens, UniProt Q13133); assay: LXR Gal4 reporter transient transfection assay (FL-M2H Gal4α); assay type: cell-based; details: HEK293 cells, full length LXRα; read-out: FL-M2H Gal4α (EC50 range)
# T2 construct: the full length (FL) proteins of LXRα (amino acids 1-447); NP005684; expressed in transfected cells; host or cells: HEK293
# T2 sequence (Q13133 1-447): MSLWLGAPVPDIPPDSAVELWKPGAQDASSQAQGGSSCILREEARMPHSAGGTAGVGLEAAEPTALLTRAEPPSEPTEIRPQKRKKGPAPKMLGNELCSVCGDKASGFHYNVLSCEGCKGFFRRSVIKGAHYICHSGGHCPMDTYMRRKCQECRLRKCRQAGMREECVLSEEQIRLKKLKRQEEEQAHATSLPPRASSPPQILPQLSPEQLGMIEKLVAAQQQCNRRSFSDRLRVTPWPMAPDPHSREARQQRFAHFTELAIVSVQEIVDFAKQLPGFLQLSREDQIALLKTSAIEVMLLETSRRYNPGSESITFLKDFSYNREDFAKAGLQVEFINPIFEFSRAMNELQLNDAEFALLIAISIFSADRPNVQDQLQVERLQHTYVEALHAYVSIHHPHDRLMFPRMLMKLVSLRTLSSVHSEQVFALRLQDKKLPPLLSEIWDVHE
# Procedure, shortened: (§1)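 Cells (HEK293, 3.5×10^4/well) were plated 16-20 h, transfected with LXR, cofactor and reporter plasmids, treated with compound after 4 h, and lysed after a further 16 h. Interaction of LXR constructs with SRC1 or NCoR is detected by GAL4-driven Firefly luciferase.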
# [3] = biological target: T3, full length (FL) LXRβ (Homo sapiens, UniProt P55055, DUP175-175); assay: LXR Gal4 reporter transient transfection assay (FL-M2H Gal4β); assay type: cell-based; details: HEK293 cells, full length LXRβ; read-out: FL-M2H Gal4β (EC50 range)
# T3 construct: the full length (FL) proteins of LXRα (amino acids 1-447); NP005684; NP009052; expressed in transfected cells; host or cells: HEK293
# T3 sequence (P55055 with tags, fused parts or gaps DUP175-175): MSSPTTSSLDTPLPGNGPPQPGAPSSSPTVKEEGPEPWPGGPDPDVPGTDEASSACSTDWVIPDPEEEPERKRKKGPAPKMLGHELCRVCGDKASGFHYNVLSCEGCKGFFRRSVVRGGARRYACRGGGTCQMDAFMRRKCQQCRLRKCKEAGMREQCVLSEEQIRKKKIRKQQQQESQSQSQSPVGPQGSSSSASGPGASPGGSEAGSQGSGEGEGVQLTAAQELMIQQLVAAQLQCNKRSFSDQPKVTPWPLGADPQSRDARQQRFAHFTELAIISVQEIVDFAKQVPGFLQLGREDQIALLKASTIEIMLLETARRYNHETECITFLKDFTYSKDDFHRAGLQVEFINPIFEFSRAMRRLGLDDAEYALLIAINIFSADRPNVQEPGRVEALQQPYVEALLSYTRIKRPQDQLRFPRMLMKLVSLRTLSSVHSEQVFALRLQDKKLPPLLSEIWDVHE
# Procedure, shortened: as §1
smiles,measurement,setting,value
Cc1ccc(S(=O)(=O)n2c(-c3cccc(-c4ccc(C(C)(C)N)cc4Cl)c3)c(-c3ccsc3C#N)c3cc(F)ccc32)cc1 [2/2],EC50,[1],100 to 1000 nM
same,EC50,[2],100 to 1000 nM
same,EC50,[3],100 to 1000 nM
Cc1ccc(S(=O)(=O)n2c(-c3cc(N4CC(C(=O)O)C4)ccc3Cl)c(-c3ccsc3C#N)c3cc(F)ccc32)cc1 [3/40],EC50,[1],1000 to 10000 nM
same,EC50,[2],100 to 1000 nM
same,EC50,[3],< 100 nM
N#Cc1sccc1-c1c(-c2cccc(N3CC(C(=O)O)C3)c2)n(S(=O)(=O)c2ccc(C(F)(F)F)cc2)c2ccc(F)cc12 [3/34],EC50,[1],100 to 1000 nM
same,EC50,[2],100 to 1000 nM
same,EC50,[3],< 100 nM
Cc1ccc(S(=O)(=O)n2c(-c3cccc(-c4ccc(CN)cc4Cl)c3)c(-c3ccsc3C#N)c3cc(F)ccc32)cc1 [2/1],EC50,[1],100 to 1000 nM
same,EC50,[2],100 to 1000 nM
same,EC50,[3],100 to 1000 nM
Cc1ccc(S(=O)(=O)n2c(-c3cccc(N4CC(C(=O)O)C4)c3)c(-c3ccsc3C(F)F)c3cc(F)ccc32)cc1 [3/4],EC50,[1],100 to 1000 nM
same,EC50,[2],100 to 1000 nM
same,EC50,[3],< 100 nM
Cc1ccc(S(=O)(=O)n2c(-c3cccc(-c4ccc(CO)c(S(=O)(=O)CC(=O)O)c4)c3)c(-c3ccsc3C#N)c3ccccc32)cc1 [5/1],EC50,[1],100 to 1000 nM
same,EC50,[2],1000 to 10000 nM
same,EC50,[3],100 to 1000 nM
Cc1ccc(S(=O)(=O)n2c(-c3cccc(C4CC4C(=O)O)c3)c(-c3ccsc3C#N)c3cccnc32)cc1 (stereo not drawn) [4/2],EC50,[1],1000 to 10000 nM
same,EC50,[2],100 to 1000 nM
same,EC50,[3],100 to 1000 nM
N#Cc1cccc(C#N)c1-c1c(-c2cccc([C@H]3CC[C@@H](C(=O)O)CC3)c2)n(S(=O)(=O)c2ccc(C(F)F)cc2)c2ccc(F)cc12 [11/61],EC50,[1],100 to 1000 nM
same,EC50,[2],< 100 nM
same,EC50,[3],< 100 nM
Cc1ccc(S(=O)(=O)n2c(-c3cccc(-c4ccc(C(=O)O)cc4)c3)c(-c3ccsc3C#N)c3cc(F)cc(O)c32)cc1 [3/54],EC50,[1],100 to 1000 nM
same,EC50,[2],< 100 nM
same,EC50,[3],< 100 nM
Cc1ccc(S(=O)(=O)n2c(-c3cccc(N4[C@@H]5CC[C@H]4C[C@@H](C(=O)O)C5)c3)c(-c3ccsc3C#N)c3cc(F)ccc32)cc1 [3/58],EC50,[1],1000 to 10000 nM
same,EC50,[2],< 100 nM
same,EC50,[3],< 100 nM
N#Cc1cccc(C#N)c1-c1c(-c2cccc(Br)c2)n(S(=O)(=O)c2ccc(C(F)F)cc2)c2ccc(F)cc12 [1/139],EC50,[1],100 to 1000 nM
same,EC50,[2],< 100 nM
same,EC50,[3],< 100 nM
Cc1ccc(S(=O)(=O)n2c(-c3cccc(N4CC(C(=O)O)C4)c3)c(-c3ccsc3C(F)(F)F)c3cc(F)ccc32)cc1 [3/30],EC50,[1],100 to 1000 nM
same,EC50,[2],< 100 nM
same,EC50,[3],< 100 nM
O=C(O)c1ccc(-c2cccc(-c3c(-c4cccc5nonc45)c4cc(F)ccc4n3S(=O)(=O)c3ccc(C(F)F)cc3)c2)c(Cl)c1 [11/45],EC50,[1],< 100 nM
same,EC50,[2],< 100 nM
same,EC50,[3],< 100 nM
Cc1ccc(S(=O)(=O)n2c(-c3cc(N4CC(C(=O)O)C4)ccc3F)c(-c3ccsc3C#N)c3cc(F)ccc32)cc1 [3/41],EC50,[1],1000 to 10000 nM
same,EC50,[2],< 100 nM
same,EC50,[3],< 100 nM
Cc1ccc(S(=O)(=O)n2c(-c3cccc(-c4cccc(S(C)(=O)=Nc5nnn[nH]5)c4)c3)c(-c3ccsc3C#N)c3cc(F)ccc32)cc1 (stereo not drawn) [37/1],EC50,[1],100 to 1000 nM
same,EC50,[2],100 to 1000 nM
same,EC50,[3],100 to 1000 nM
Cc1ccc(S(=O)(=O)n2c(-c3cccc(-c4ccc(C(C)(C)C(=O)O)c(S(C)(=O)=O)c4)c3)c(-c3ccsc3C#N)c3cc(F)ccc32)cc1 [2/18],EC50,[1],100 to 1000 nM
same,EC50,[2],100 to 1000 nM
same,EC50,[3],< 100 nM
Cc1ccc(S(=O)(=O)n2c(-c3cccc(-c4ccc(C(=O)O)c(F)c4Cl)c3)c(-c3ccsc3C#N)c3cc(F)ccc32)cc1 [12/3],EC50,[1],100 to 1000 nM
same,EC50,[2],< 100 nM
same,EC50,[3],< 100 nM
O=C(O)c1ccc(-c2cccc(-c3c(-c4c(C(F)F)cccc4C(F)F)c4cc(F)ccc4n3S(=O)(=O)c3ccc(C(F)F)cc3)c2)c(Cl)c1 [11/15],EC50,[1],< 100 nM
same,EC50,[2],< 100 nM
same,EC50,[3],< 100 nM
Cc1ccc(S(=O)(=O)n2c(-c3cccc(-c4cc(C(=O)O)nn4C(C)C)c3)c(-c3ccsc3C#N)c3cc(F)ccc32)cc1 [12/8],EC50,[1],1000 to 10000 nM
same,EC50,[2],100 to 1000 nM
same,EC50,[3],100 to 1000 nM
COc1cc(-c2cccc(-c3c(-c4ccsc4C#N)c4cc(F)ccc4n3S(=O)(=O)c3ccc(C)cc3)c2)c(Cl)cc1C(=O)O [12/4],EC50,[1],100 to 1000 nM
same,EC50,[2],< 100 nM
same,EC50,[3],< 100 nM
"Cc1ccc(S(=O)(=O)n2c(-c3cccc(-c4ccc(C(C(=O)O)N(C)C)cc4Cl)c3)c(-c3ccsc3C#N)c3cc(F)ccc32)cc1 (stereo not drawn) [Example 3, 2-(2-Chloro-3′-(3-(2-cyanothiophen-3-yl)-5-fluoro-1-tosyl-1H-indol-2-yl)-[1,1′-biphenyl]-4-yl)-2-(dimethylamino)acetic Acid]",EC50,[1],< 100 nM
same,EC50,[2],< 100 nM
same,EC50,[3],< 100 nM
Cc1ccc(S(=O)(=O)n2c(-c3cccc(-c4ccc5c(C(=O)O)n[nH]c5c4)c3)c(-c3ccsc3C#N)c3cc(F)ccc32)cc1 [12/9],EC50,[1],100 to 1000 nM
same,EC50,[2],100 to 1000 nM
same,EC50,[3],100 to 1000 nM
N#Cc1cccc(F)c1-c1c(-c2cccc(-c3ccc(C(=O)O)cc3Cl)c2)n(S(=O)(=O)c2ccc(C(F)F)cc2)c2ccc(F)cc12 [11/34],EC50,[1],< 100 nM
same,EC50,[2],< 100 nM
same,EC50,[3],< 100 nM
Cc1ccc(S(=O)(=O)n2c(-c3cccc(-c4ccc(C(=O)O)cc4Cl)c3)c(-c3ccsc3C#N)c3cc(F)ccc32)cc1F [11/19],EC50,[1],100 to 1000 nM
same,EC50,[2],< 100 nM
same,EC50,[3],< 100 nM
N#Cc1sccc1-c1c(-c2cccc(N3CCC(C(=O)O)CC3)c2)n(S(=O)(=O)c2ccc(C(F)F)cc2)c2ccc(F)cc12 [3/60],EC50,[1],100 to 1000 nM
same,EC50,[2],< 100 nM
same,EC50,[3],< 100 nM
Cc1ccc(S(=O)(=O)n2c(-c3cccc(-c4ccc(C(C)(O)C(=O)O)cc4)c3)c(-c3ccsc3C#N)c3cc(F)ccc32)cc1 (stereo not drawn) [3/55],EC50,[1],100 to 1000 nM
same,EC50,[2],< 100 nM
same,EC50,[3],< 100 nM
N#Cc1sccc1-c1c(-c2cccc(-c3cc(F)c(C(=O)O)cc3Cl)c2)n(S(=O)(=O)c2ccc(CF)cc2)c2ccc(F)cc12 [11/7],EC50,[1],< 100 nM
same,EC50,[2],< 100 nM
same,EC50,[3],< 100 nM
N#Cc1cccc(C#N)c1-c1c(-c2cccc(-c3c(F)c(F)c(C(=O)O)c(F)c3F)c2)n(S(=O)(=O)c2ccc(C(F)F)cc2)c2ccc(F)cc12 [11/54],EC50,[1],< 100 nM
same,EC50,[2],< 100 nM
same,EC50,[3],< 100 nM
N#Cc1sccc1-c1c(-c2cccc(-c3cc(F)c(C(=O)O)cc3Cl)c2)n(S(=O)(=O)c2ccc(C(F)F)cc2)c2ccc(F)cc12 [11/8],EC50,[1],< 100 nM
same,EC50,[2],< 100 nM
same,EC50,[3],< 100 nM
Cc1cccc(C(F)F)c1-c1c(-c2cccc(-c3ccc(C(=O)O)cc3Cl)c2)n(S(=O)(=O)c2ccc(C(F)F)cc2)c2ccc(F)cc12 [11/38],EC50,[1],< 100 nM
same,EC50,[2],< 100 nM
same,EC50,[3],< 100 nM
N#Cc1sccc1-c1c(-c2cccc(C3CC3C(=O)NO)c2)n(S(=O)(=O)c2ccc(Cl)cc2)c2ccccc12 (stereo not drawn) [6/1],EC50,[1],100 to 1000 nM
same,EC50,[2],< 100 nM
same,EC50,[3],< 100 nM
